The source of these data is patent US20260191786A1, “SOLID DOSAGE FORMS WITH HIGH ACTIVE AGENT LOADING” (Lonza Sales AG, priority 2018, published 2026).

Converted amounts (≈) assume the structure as drawn. Like-named read-outs stand apart in the source and are kept apart here.

Holding throughout (type): physicochemical
Series [1] is described as follows: pKa (base) of the active agent.
Series [2] is described as follows: Log P of the active agent. The source says:
Log P: The Log P value of an active agent is defined as the base 10 logarithm of the ratio of (1) the active agent concentration in an octanol phase to (2) the active agent concentration in a water phase when the two phases are in equilibrium with each other, is a widely accepted measure of lipophilicity. The Log P value may be measured experimentally or calculated using methods known in the art. The Log P value may be estimated experimentally by determining the ratio of the drug solubility in octanol to the drug solubility in water. When using a calculated value for the Log P value, the highest value calculated using any generally accepted method for calculating Log P is used.

A short description of series [3]: Crystalline and amorphous solubility of the active agent in SIF / gastric buffer.

For the compound `C#Cc1cccc(Nc2ncnc3cc(OCCOC)c(OCCOC)cc23)c1` [Erlotinib], in series [1], the pKa (commonly the negative logarithm of the acid dissociation constant) worked out at 5.3. In addition, in series [2], the Log P (in general, a log measure of how a compound divides between an organic and an aqueous phase) was determined as 2.8. Besides, the solubility (as a rule, how much of the substance goes into solution per volume) in series [3] (0.5% SIF (simulated intestinal fluid), fassgf or other biorelevant, amorphous, 0.5% SIF, read-out: amorphous solubility in 0.5% SIF) was around 380 µg/mL (≈ 966 µM); in series [3] (gastric buffer (GB), simulated gastric fluid, thermodynamic from solid, crystalline, gastric buffer, read-out: crystalline solubility in gastric buffer (GB)), 182 µg/mL (≈ 463 µM).

Posaconazole: the “pKa (base)” value in series [1] is given as 4.5. Further, the “Log P” value in series [2] stood at 4.5.
